Reference: patent US20140005281A1, “Method of Predicting Increased Risk of Suffering Statin-induced Adverse Drug Reactions” (priority 2012, published 2014)

How the values were obtained:
caspase-3 = conditions: mouse, in vivo
Experimental: A firefly luciferase-based assay was used to measure activity of caspase 3 (Caspase-Glo® 3/7, Promega). Muscles were homogenized (25 mM HEPES pH 7.5, 0.1% (v/v) Triton X-100, 5 mM MgCl2, 2 mM 1,4-dithiothreitol, 10 mM NH4Cl, 10 mM 3-methyladenine, 74 μM antipain, 0.15 μM aprotinin, 1.3 mM EDTA, 20 μM leupeptin, and 15 μM pepstatin). After homogenization, a 20 μg protein product was added to the luminometer in triplicates for the protease luminescence assay.
(§1) Serial cryosections of tibialis anterior muscle from statin-treated αC418W and WT mice were stained for calcium deposits (via GBHA) and also for cholinesterase to localize end-plates. Looking at these in adjacent sections, we were able to measure the percent of calcium-positive NMJs as previously described.

[1] = Cholesterol measurement in muscle during statin treatment; type: in vivo, mice; conditions: after 3 days of statin treatment, 44 mg/kg daily oral gavage
Experimental: 800 μl of each sucrose gradient fraction were subjected to the Bligh-Dyer method for the extraction of lipids in solution. Briefly, 3.75 ml 1:2 (v/v) CHC13: MeOH were added to each sample, followed by 1.25 ml of CHCl3, and 1.25 ml of distilled water; after each addition, samples were vigorously vortexed. The organic phase of each sample was carefully extracted and dried under N2(g). Cholesterol was separated from other lipids on rhodamine 6G stained silica gel G plates with petroleum ether/diethyl ether (98:2, v/v) as the solvent system. The spots corresponding to cholesterol was extracted with petroleum ether:ethyl ether (2:3 v/v) and further assayed using the Wako cholesterol E Kit (Wako Chemicals USA, VA) according to the manufacturer's indications.

αC418W and WT mice = assay: GBHA stain for end-plate (NMJ) calcium overload, tibialis anterior muscle
Description: as §1

CC(C)c1c(C(=O)Nc2ccccc2)c(-c2ccccc2)c(-c2ccc(F)cc2)n1CC[C@@H](O)C[C@@H](O)CC(=O)O [atorvastatin, Atorvastatin calcium]
caspase-3 activity (caspase-3): did not show an increase
caspase-3 activity compared with placebo-treated control group (caspase-3): remained unchanged
total cholesterol levels [1]: significantly lowered
NMJ calcium overload (αC418W and WT mice; WT mice, statin treatment): did not cause NMJ calcium overload
NMJ calcium overload (GBHA-positive end-plates), increase over control levels (αC418W and WT mice; αC418W mice, at 36 days of statin treatment): ~3 fold
